Results on one molecule are retold here after patent US11999749B2, “Synthesis of a bis-mesylate salt of 4-amino-N-(1-((3-chloro-2-fluorophenyl)amino)-6-methylisoquinolin-5-yl)thieno[3,2-d]pyrimidine-7-carboxamide and intermediates thereto” (Genentech, Inc., priority 2021, dated 2024).

The nature of data set [1]: hygroscopicity of the salt forms. The format is physicochemical. The settings on record: relative to the bis-HCl salt.
The nature of data set [2]: solubility screen of 1b in organic solvents. Type of data set: physicochemical. The text has this:
This is notwithstanding the previously established solubility of 1b in NMP; that solvent should not be used due to its toxicity and the allowed limit of ˜500 ppm in the final pharmaceutical product. The limit for NMP is considerably lower than the 5,000 ppm permitted for DMSO. One of the reasons for relying on the recrystallization step is to remove an excess of NMP from the final product.
The selection of an appropriate anti-solvent is based at least in part on good miscibility with the other solvent(s) being used, low solubility of the solid form (to give desired form), and the ability to effectively remove impurities. To ensure the best control and purge of inorganic impurities in the crude product, water was selected as the anti-solvent. To this end, a more detailed solubility study of the crude material in DMSO/water mixtures at 10, 70, 75 and 80° C. indicated a steep dependence of the solubility of 1b on water content, with temperature having a smaller impact on recovery yield.

As for `Cc1ccc2c(Nc3cccc(Cl)c3F)nccc2c1NC(=O)c1csc2c(N)ncnc12` [Compound 1b, 4-amino-N-(1-((3-chloro-2-fluorophenyl)amino)-6-methylisoquinolin-5-yl)thieno[3,2-d]pyrimidine-7-carboxamide bis-mesylate], the hygroscopicity result in data set [1] is given as “lower hygroscopicity”. The solubility result in data set [2] (in DMSO) is reported as “sufficient solubility”; in data set [2] (in most organic solvents, initial solubility screen) it was “exceptionally low solubility”.
